{"source": "patent US8993542B2", "about": "“Methods of treating viral infections” (priority 2008, dated 2015)", "key": {"[1]": {"assay": "Toxicokinetics and 7-day toxicity after oral administration of CMX157 to rats", "type": "in vivo", "conditions": "for AUC0-24 / Cmax / Tmax / AUC(0-t) / AUC0-∞ / t1/2elim: rat plasma; for AUC(0-t): read-out: AUC0-24"}, "[2]": {"test_system": "HIV-2 Isolates", "assay": "Activity against HIV-2 isolates in PBMCs, RT endpoint", "type": "cell-based", "conditions": "for IC50: Human immunodeficiency virus 2, PBMC"}, "[3]": {"test_system": "HIV", "assay": "microbe, parasite or virus in culture", "type": "cell-based"}, "[4]": {"test_system": "HIV-1IIIB", "assay": "TCID50 determination of drug-treated HIV-1IIIB", "type": "cell-based", "design": "TCID50, XTT Endpoint / TCID50, RT Endpoint / TCID50, P24 Endpoint: unit not given here", "conditions": "500 nM"}}, "note": "Read-outs that look alike come from different tables or passages of the source."}
{"smiles": "CCCCCCCCCCCCCCCCOCCCOP(=O)(O)CO[C@H](C)Cn1cnc2c(N)ncnc21", "note": "[CMX157, Hexadecyloxypropyl-9-R-[2-(Phosphonomethoxy)Propyl]-Adenine]", "values": [{"measurement": "AUC0-24", "setting": "[1]; oral CMX157 10 mg/kg, day 1", "result": 441.7, "unit": "ng·h/mL"}, {"measurement": "Cmax", "setting": "[1]; oral CMX157 10 mg/kg, day 1", "result": 0.08485, "unit": "µg/mL"}, {"measurement": "Tmax", "setting": "[1]; oral CMX157 10 mg/kg, day 1", "result": 0.5, "unit": "h"}, {"measurement": "Cmax", "setting": "[1]; oral CMX157 10 mg/kg, day 7", "result": 0.1109, "unit": "µg/mL"}, {"measurement": "Tmax", "setting": "[1]; oral CMX157 10 mg/kg, day 7", "result": 0.5, "unit": "h"}, {"measurement": "AUC(0-t)", "setting": "[1]; oral CMX157 10 mg/kg, day 7", "result": 0.435, "unit": "µg·h/mL"}, {"measurement": "AUC0-24", "setting": "[1]; oral CMX157 30 mg/kg, day 1", "result": "1,832.8 ng · h/ml"}, {"measurement": "Cmax", "setting": "[1]; oral CMX157 30 mg/kg, day 1", "result": 0.379, "unit": "µg/mL"}, {"measurement": "Tmax", "setting": "[1]; oral CMX157 30 mg/kg, day 1", "result": 2.0, "unit": "h"}, {"measurement": "Cmax", "setting": "[1]; oral CMX157 30 mg/kg, day 7", "result": 0.2025, "unit": "µg/mL"}, {"measurement": "Tmax", "setting": "[1]; oral CMX157 30 mg/kg, day 7", "result": 1.0, "unit": "h"}, {"measurement": "AUC(0-t)", "setting": "[1]; oral CMX157 30 mg/kg, day 7", "result": 1.54, "unit": "µg·h/mL"}, {"measurement": "AUC0-24", "setting": "[1]; oral CMX157 100 mg/kg, day 1", "result": "5,408 ng · h/ml"}, {"measurement": "AUC0-∞", "setting": "[1]; oral CMX157 100 mg/kg, day 1", "result": "5,429.8 ng · h/ml"}, {"measurement": "Cmax", "setting": "[1]; oral CMX157 100 mg/kg, day 1", "result": 0.905, "unit": "µg/mL"}, {"measurement": "Tmax", "setting": "[1]; oral CMX157 100 mg/kg, day 1", "result": 2.0, "unit": "h"}, {"measurement": "t1/2elim", "setting": "[1]; oral CMX157 100 mg/kg, day 1", "result": 2.5, "unit": "h"}, {"measurement": "AUC0-∞", "setting": "[1]; oral CMX157 100 mg/kg, day 7", "result": "8,050.6 ng · h/ml"}, {"measurement": "Cmax", "setting": "[1]; oral CMX157 100 mg/kg, day 7", "result": 0.6855, "unit": "µg/mL"}, {"measurement": "Tmax", "setting": "[1]; oral CMX157 100 mg/kg, day 7", "result": 2.0, "unit": "h"}, {"measurement": "t1/2elim", "setting": "[1]; oral CMX157 100 mg/kg, day 7", "result": 1.6, "unit": "h"}, {"measurement": "AUC(0-t)", "setting": "[1]; oral CMX157 100 mg/kg, day 7", "result": 8.05, "unit": "µg·h/mL"}, {"measurement": "no-observed-adverse-effect level", "setting": "[1]; rats, 7 days, highest dose tested", "result": "up to 100 mg/kg/day"}, {"measurement": "TI (TC50/IC50)", "setting": "[2]; HIV-2 isolate CBL-20", "result": ">223"}, {"measurement": "TI (TC50/IC50)", "setting": "[2]; HIV-2 isolate CDC310319", "result": ">564"}, {"measurement": "TI (TC50/IC50)", "setting": "[2]; HIV-2 isolate CDC310342", "result": ">232"}, {"measurement": "IC50", "setting": "[2]; HIV-2 isolate CBL-20", "result": 4.48, "unit": "nM"}, {"measurement": "IC50", "setting": "[2]; HIV-2 isolate CDC310319", "result": 1.77, "unit": "nM"}, {"measurement": "IC50", "setting": "[2]; HIV-2 isolate CDC310342", "result": 4.31, "unit": "nM"}, {"measurement": "IC50", "setting": "[3]; Human immunodeficiency virus 1, PANEL 1, WT", "result": 1.72, "unit": "nM"}, {"measurement": "IC50", "setting": "[3]; Human immunodeficiency virus 1, PANEL 2, WT", "result": 1.61, "unit": "nM"}, {"measurement": "IC50", "setting": "[3]; Human immunodeficiency virus 1, PANEL 3, 6 TAMs, no 184", "result": 8.5, "unit": "nM"}, {"measurement": "IC50", "setting": "[3]; Human immunodeficiency virus 1, PANEL 6, 6 TAMs + 184", "result": 5.21, "unit": "nM"}, {"measurement": "IC50", "setting": "[3]; Human immunodeficiency virus 1, PANEL 7, 184V", "result": 1.36, "unit": "nM"}, {"measurement": "IC50", "setting": "[3]; Human immunodeficiency virus 1, PANEL 9, 69ins, no 184", "result": 57.4, "unit": "nM"}, {"measurement": "IC50", "setting": "[3]; Human immunodeficiency virus 1, PANEL 12, 69ins + 184", "result": 11.2, "unit": "nM"}, {"measurement": "IC50", "setting": "[3]; Human immunodeficiency virus 1, PANEL 14, 65R, no 184", "result": 3.6, "unit": "nM"}, {"measurement": "IC50", "setting": "[3]; Human immunodeficiency virus 1, PANEL 15, 65R + 184V", "result": 2.71, "unit": "nM"}, {"measurement": "IC50", "setting": "[3]; Human immunodeficiency virus 1, PANEL 17, L74V", "result": 1.23, "unit": "nM"}, {"measurement": "IC50", "setting": "[3]; Human immunodeficiency virus 1, PANEL 19, L74V + M184V", "result": 0.66, "unit": "nM"}, {"measurement": "IC50", "setting": "[3]; Human immunodeficiency virus 1, PANEL 26, 151M, no 184", "result": 3.68, "unit": "nM"}, {"measurement": "IC50", "setting": "[3]; Human immunodeficiency virus 1, PANEL 28, 151M + 184", "result": 3.05, "unit": "nM"}, {"measurement": "IC50", "setting": "[3]; Human immunodeficiency virus 1, PANEL 29, L74V − SDM", "result": 1.48, "unit": "nM"}, {"measurement": "IC50", "setting": "[3]; Human immunodeficiency virus 1, PANEL 30, M184V − SDM", "result": 1.15, "unit": "nM"}, {"measurement": "IC50", "setting": "[3]; Human immunodeficiency virus 1, PANEL 31, K65R − SDM", "result": 4.73, "unit": "nM"}, {"measurement": "IC50", "setting": "[3]; Human immunodeficiency virus 1, PANEL 33, T215Y", "result": 5, "unit": "nM"}, {"measurement": "IC50", "setting": "[3]; Human immunodeficiency virus 1, PANEL 34, T215Y + M184V", "result": 1.67, "unit": "nM"}, {"measurement": "IC50", "setting": "[3]; Human immunodeficiency virus 1, PANEL 35, M41L + T215Y", "result": 3.91, "unit": "nM"}, {"measurement": "IC50", "setting": "[3]; Human immunodeficiency virus 1, PANEL 37, M41L + T215Y + M184V", "result": 2.88, "unit": "nM"}, {"measurement": "IC50", "setting": "[3]; Human immunodeficiency virus 1, PANEL 38, M41L + L210W + T215Y", "result": 5.96, "unit": "nM"}, {"measurement": "IC50", "setting": "[3]; Human immunodeficiency virus 1, PANEL 39, M41L + L210W + T215Y", "result": 6.56, "unit": "nM"}, {"measurement": "IC50", "setting": "[3]; Human immunodeficiency virus 1, PANEL 40, M41L + L210W + T215Y + M184V", "result": 1.89, "unit": "nM"}, {"measurement": "IC50", "setting": "[3]; Human immunodeficiency virus 1, PANEL 41, M41L + L210W + T215Y + M184V", "result": 2.5, "unit": "nM"}, {"measurement": "IC50", "setting": "[3]; Human immunodeficiency virus 1, PANEL 42, D67N + K70R", "result": 5.61, "unit": "nM"}, {"measurement": "IC50", "setting": "[3]; Human immunodeficiency virus 1, PANEL 44, D67N + K70R + T215F + K219E + M184V", "result": 1.92, "unit": "nM"}, {"measurement": "IC50", "setting": "[3]; Human immunodeficiency virus 1, PANEL 45, L210W + T215Y", "result": 2.79, "unit": "nM"}, {"measurement": "IC50", "setting": "[3]; Human immunodeficiency virus 1, PANEL 46, D67N + K70E", "result": 2.12, "unit": "nM"}, {"measurement": "IC50", "setting": "[3]; Human immunodeficiency virus 1, PANEL 47, D67N + K70E + M184V", "result": 1.45, "unit": "nM"}, {"measurement": "IC50", "setting": "[3]; Human immunodeficiency virus 1, PANEL 48, K70E + M184V", "result": 1.32, "unit": "nM"}, {"measurement": "IC50", "setting": "[3]; Human immunodeficiency virus 1, read-out: IC50s against NRTI resistant HIV, range over panel", "result": "1.2 to 57", "unit": "nM"}, {"measurement": "Fold Decrease From VC, P24 Endpoint", "setting": "[4]; compound removal at 1 minute", "result": "(8.0) Fold"}, {"measurement": "Fold Decrease From VC, RT Endpoint", "setting": "[4]; compound removal at 1 minute", "result": "(5.2) Fold"}, {"measurement": "Fold Decrease From VC, XTT Endpoint", "setting": "[4]; compound removal at 1 minute", "result": "(2.2) Fold"}, {"measurement": "TCID50, P24 Endpoint", "setting": "[4]; compound removal at 1 minute", "result": 4529}, {"measurement": "TCID50, RT Endpoint", "setting": "[4]; compound removal at 1 minute", "result": 25588}, {"measurement": "TCID50, XTT Endpoint", "setting": "[4]; compound removal at 1 minute", "result": 2014}, {"measurement": "Fold Decrease From VC, P24 Endpoint", "setting": "[4]; compound removal at 15 minutes", "result": "(5.7) Fold"}, {"measurement": "Fold Decrease From VC, RT Endpoint", "setting": "[4]; compound removal at 15 minutes", "result": "(3.6) Fold"}, {"measurement": "Fold Decrease From VC, XTT Endpoint", "setting": "[4]; compound removal at 15 minutes", "result": "(4.0) Fold"}, {"measurement": "TCID50, P24 Endpoint", "setting": "[4]; compound removal at 15 minutes", "result": 6398}, {"measurement": "TCID50, RT Endpoint", "setting": "[4]; compound removal at 15 minutes", "result": 18115}, {"measurement": "TCID50, XTT Endpoint", "setting": "[4]; compound removal at 15 minutes", "result": 1132}, {"measurement": "Fold Decrease From VC, P24 Endpoint", "setting": "[4]; compound removal at 30 minutes", "result": "(2.0) Fold"}, {"measurement": "Fold Decrease From VC, RT Endpoint", "setting": "[4]; compound removal at 30 minutes", "result": "(2.8) Fold"}, {"measurement": "Fold Decrease From VC, XTT Endpoint", "setting": "[4]; compound removal at 30 minutes", "result": "(2.0) Fold"}, {"measurement": "TCID50, P24 Endpoint", "setting": "[4]; compound removal at 30 minutes", "result": 18115}, {"measurement": "TCID50, RT Endpoint", "setting": "[4]; compound removal at 30 minutes", "result": 22805}, {"measurement": "TCID50, XTT Endpoint", "setting": "[4]; compound removal at 30 minutes", "result": 2014}, {"measurement": "Fold Decrease From VC, P24 Endpoint", "setting": "[4]; compound removal at 60 minutes", "result": "(4.0) Fold"}, {"measurement": "Fold Decrease From VC, RT Endpoint", "setting": "[4]; compound removal at 60 minutes", "result": "(3.4) Fold"}, {"measurement": "Fold Decrease From VC, XTT Endpoint", "setting": "[4]; compound removal at 60 minutes", "result": "(2.5) Fold"}, {"measurement": "TCID50, P24 Endpoint", "setting": "[4]; compound removal at 60 minutes", "result": 9058}]}
